Values quoted from earlier work, collected in US10532971B2, “4-hydroxybutyric acid analogs” (Concert Pharmaceuticals, Inc., priority 2009, dated 2020).
Structures can show the parent of a compound that is named as a salt.

How the values were obtained:
[1] = in humans
[2] = clinical trials; dose-dependent adverse effects

Compound | half life [1] [min] | rates of headache, nausea, and dizziness [2]
O=C(O)CCCO [4-hydroxybutyric acid, 4-Hydroxybutyric acid] | 30 to 60 | 
O=C(O)CCCO [sodium oxybate, sodium salt of 4-hydroxybutyric acid] |  | 17-22%
